The results in this text go back to the OligoGym collection.

HELM strings list units from the 5' end as sugar, base in round brackets, then linkage (d deoxyribose, r ribose, m 2'-O-methyl, p phosphodiester). Strings are as the collection lists them; they lack the last nucleoside at the 3' end of the tested compound. [moe] = 2'-O-(2-methoxyethyl) (MOE); [sp] = phosphorothioate linkage; [m5C] = 5-methylcytosine

For this series, the target named is GFAP. The series is described as follows: mouse, dose not given. Particulars: ASO.
With “RNA1{[moe](A)[sp].[moe](T)p.[moe](T)p.[moe](T)p.[moe](G)[sp].d(T)[sp].d([m5C])[sp].d(T)[sp].d(T)[sp].d(T)[sp].d(A)[sp].d(T)[sp].d(T)[sp].[moe](T)p.[moe](T)p.[moe](T)[sp].[moe]([m5C])}$$$$ (last 3' nucleoside missing)”, the 3 h FOB score was determined as 0 score 0-7.

“RNA1{[moe](G)[sp].[moe](G)p.[moe](T)p.[moe](G)p.[moe]([m5C])[sp].d(T)[sp].d(T)[sp].d(T)[sp].d(T)[sp].d(G)[sp].d([m5C])[sp].d([m5C])[sp].d([m5C])[sp].d([m5C])[sp].d([m5C])[sp].[moe](T)p.[moe]([m5C])p.[moe](G)[sp].[moe](A)}$$$$ (last 3' nucleoside missing)” gave a 3 h FOB score of 1 score 0-7.

“RNA1{[moe](A)[sp].[moe](A)p.[moe](G)p.[moe]([m5C])p.[moe](T)[sp].d([m5C])[sp].d(T)[sp].d(G)[sp].d(A)[sp].d(G)[sp].d([m5C])[sp].d(T)[sp].d(G)[sp].d(T)[sp].d(G)[sp].[moe](G)p.[moe](T)p.[moe](G)[sp].[moe](T)}$$$$ (last 3' nucleoside missing)”: the 3 h FOB score stood at 4 score 0-7.

Substance “RNA1{[moe](G)[sp].[moe](G)p.[moe](T)p.[moe](G)p.[moe](A)[sp].d(G)[sp].d(T)[sp].d(T)[sp].d(T)[sp].d([m5C])[sp].d(T)[sp].d(T)[sp].d(G)[sp].d(T)[sp].d(T)[sp].[moe](A)p.[moe](G)p.[moe](T)[sp].[moe](T)}$$$$ (last 3' nucleoside missing)” gave a 3 h FOB score of 7 score 0-7.

“RNA1{[moe](T)[sp].[moe](T)p.[moe](T)p.[moe](T)p.d(G)[sp].d(A)[sp].d(G)[sp].d(A)[sp].d(T)[sp].d(A)[sp].d(T)[sp].d([m5C])[sp].d(T)[sp].d(T)[sp].[moe](G)p.[moe](T)p.[moe](G)p.[moe](A)[sp].[moe]([m5C])}$$$$ (last 3' nucleoside missing)” showed a 3 h FOB score of 3 score 0-7.

“RNA1{[moe]([m5C])[sp].[moe](A)p.[moe](T)p.[moe](T)p.[moe](T)p.[moe](G)p.d(T)[sp].d([m5C])[sp].d(T)[sp].d(T)[sp].d(T)[sp].d(A)[sp].d(T)[sp].d(T)[sp].d(T)[sp].d(T)[sp].[moe](T)p.[moe]([m5C])[sp].[moe]([m5C])}$$$$ (last 3' nucleoside missing)” had a 3 h FOB score of 0 score 0-7.

On to “RNA1{[moe](T)[sp].[moe](G)p.[moe]([m5C])p.[moe]([m5C])p.[moe]([m5C])[sp].d([m5C])[sp].d([m5C])[sp].d([m5C])[sp].d(G)[sp].d([m5C])[sp].d([m5C])[sp].d([m5C])[sp].d(T)[sp].d([m5C])[sp].d([m5C])[sp].[moe](T)p.[moe]([m5C])p.[moe]([m5C])[sp].[moe]([m5C])}$$$$ (last 3' nucleoside missing)”, for which the 3 h FOB score worked out at 4 score 0-7.

In the case of “RNA1{[moe](G)[sp].[moe](T)p.[moe](G)p.[moe](A)p.d([m5C])[sp].d(T)[sp].d(A)[sp].d(T)[sp].d([m5C])[sp].d(T)[sp].d(A)[sp].d(G)[sp].d(G)[sp].d(A)[sp].[moe](T)p.[moe](T)p.[moe](T)p.[moe](G)[sp].[moe](G)}$$$$ (last 3' nucleoside missing)”, the 3 h FOB score was determined as 3 score 0-7.

“RNA1{[moe](T)[sp].[moe](G)p.[moe](G)p.[moe]([m5C])p.[moe](A)p.[moe](G)p.d(T)[sp].d(A)[sp].d(T)[sp].d(T)[sp].d(A)[sp].d([m5C])[sp].d([m5C])[sp].d(T)[sp].d([m5C])[sp].d(T)[sp].[moe](A)p.[moe]([m5C])[sp].[moe](T)}$$$$ (last 3' nucleoside missing)” had a 3 h FOB score of 0 score 0-7.

“RNA1{[moe](G)[sp].[moe](T)p.[moe]([m5C])p.[moe](T)p.[moe](G)[sp].d(A)[sp].d(G)[sp].d(T)[sp].d([m5C])[sp].d(T)[sp].d([m5C])[sp].d(A)[sp].d(G)[sp].d(T)[sp].d(T)[sp].[moe](T)p.[moe](T)p.[moe]([m5C])[sp].[moe]([m5C])}$$$$ (last 3' nucleoside missing)” yielded a 3 h FOB score of 7 score 0-7.

“RNA1{[moe](T)[sp].[moe](A)p.[moe](G)p.[moe](T)p.[moe]([m5C])p.d(A)[sp].d(G)[sp].d([m5C])[sp].d([m5C])[sp].d(T)[sp].d(G)[sp].d(G)[sp].d(T)[sp].d(T)[sp].d(A)[sp].[moe](G)p.[moe]([m5C])p.[moe]([m5C])[sp].[moe](T)}$$$$ (last 3' nucleoside missing)” showed a 3 h FOB score of 4 score 0-7.

With “RNA1{[moe]([m5C])[sp].[moe](T)p.[moe](A)p.[moe](G)p.d(T)[sp].d([m5C])[sp].d(A)[sp].d(G)[sp].d([m5C])[sp].d([m5C])[sp].d(T)[sp].d(G)[sp].d(G)[sp].d(T)[sp].[moe](T)p.[moe](A)p.[moe](G)p.[moe]([m5C])[sp].[moe]([m5C])}$$$$ (last 3' nucleoside missing)”, the 3 h FOB score was determined as 4 score 0-7.

With “RNA1{[moe](A)[sp].[moe](A)p.[moe](A)p.[moe](G)p.[moe](G)p.d([m5C])[sp].d(A)[sp].d([m5C])[sp].d(A)[sp].d(G)[sp].d(T)[sp].d(T)[sp].d([m5C])[sp].d([m5C])[sp].d([m5C])[sp].[moe](A)p.[moe](G)p.[moe](A)[sp].[moe](T)}$$$$ (last 3' nucleoside missing)”, the 3 h FOB score is 2 score 0-7.

As to “RNA1{[moe](T)[sp].[moe]([m5C])p.[moe](A)p.[moe](G)p.[moe]([m5C])p.d([m5C])[sp].d(T)[sp].d(G)[sp].d(G)[sp].d(T)[sp].d(T)[sp].d(A)[sp].d(G)[sp].d([m5C])[sp].d([m5C])[sp].[moe](T)p.[moe](T)p.[moe](T)[sp].[moe]([m5C])}$$$$ (last 3' nucleoside missing)”, the 3 h FOB score was 4 score 0-7.

“RNA1{[moe](T)[sp].[moe]([m5C])p.[moe](T)p.[moe](T)p.d(T)[sp].d(A)[sp].d(T)[sp].d(T)[sp].d(T)[sp].d(T)[sp].d(T)[sp].d([m5C])[sp].d([m5C])[sp].d(T)[sp].[moe]([m5C])p.[moe](A)p.[moe](G)p.[moe]([m5C])[sp].[moe](G)}$$$$ (last 3' nucleoside missing)”: the 3 h FOB score came to 1 score 0-7.

Substance “RNA1{[moe]([m5C])[sp].[moe](T)p.[moe]([m5C])p.[moe]([m5C])p.[moe](A)[sp].d(T)[sp].d([m5C])[sp].d(T)[sp].d([m5C])[sp].d(T)[sp].d(G)[sp].d(G)[sp].d([m5C])[sp].d(A)[sp].d(A)[sp].[moe]([m5C])p.[moe](A)p.[moe](G)[sp].[moe](T)}$$$$ (last 3' nucleoside missing)” gave a 3 h FOB score of 4 score 0-7.

Take “RNA1{[moe](T)[sp].[moe](T)p.[moe](T)p.[moe](G)p.[moe](G)p.d([m5C])[sp].d(A)[sp].d(G)[sp].d(T)[sp].d(A)[sp].d(T)[sp].d(T)[sp].d(A)[sp].d([m5C])[sp].d([m5C])[sp].[moe](T)p.[moe]([m5C])p.[moe](T)[sp].[moe](A)}$$$$ (last 3' nucleoside missing)”: the 3 h FOB score stood at 1 score 0-7.

With “RNA1{[moe]([m5C])[sp].[moe](A)p.[moe]([m5C])p.[moe](A)p.[moe](T)[sp].d(T)[sp].d([m5C])[sp].d(A)[sp].d([m5C])[sp].d(T)[sp].d(A)[sp].d(A)[sp].d(T)[sp].[moe](A)p.[moe](T)p.[moe](T)[sp].[moe](T)}$$$$ (last 3' nucleoside missing)”, the 3 h FOB score turned out to be 0 score 0-7.

“RNA1{[moe](G)[sp].[moe](G)p.[moe]([m5C])p.[moe](T)p.[moe]([m5C])[sp].d(T)[sp].d([m5C])[sp].d(T)[sp].d([m5C])[sp].d(A)[sp].d(T)[sp].d([m5C])[sp].d(T)[sp].d(G)[sp].d(T)[sp].[moe]([m5C])p.[moe](A)p.[moe](A)[sp].[moe](A)}$$$$ (last 3' nucleoside missing)” had a 3 h FOB score of 4 score 0-7.

For “RNA1{[moe](G)[sp].[moe](A)p.[moe](G)p.[moe](T)p.[moe](G)[sp].d(T)[sp].d(G)[sp].d(T)[sp].d(A)[sp].d(T)[sp].d(T)[sp].d(A)[sp].d(G)[sp].d(G)[sp].d(A)[sp].[moe](T)p.[moe]([m5C])p.[moe]([m5C])[sp].[moe]([m5C])}$$$$ (last 3' nucleoside missing)”, the 3 h FOB score was determined as 6 score 0-7.

With “RNA1{[moe](T)[sp].[moe](T)p.[moe](G)p.[moe](A)p.[moe](G)[sp].d(A)[sp].d(T)[sp].d(A)[sp].d(T)[sp].d([m5C])[sp].d(T)[sp].d(T)[sp].d(G)[sp].[moe](T)p.[moe](G)p.[moe](A)[sp].[moe]([m5C])}$$$$ (last 3' nucleoside missing)”, the 3 h FOB score was 3 score 0-7.

The substance “RNA1{[moe](A)[sp].[moe](T)p.[moe](T)p.[moe](T)p.d(G)[sp].d(G)[sp].d([m5C])[sp].d(A)[sp].d(G)[sp].d(T)[sp].d(A)[sp].d(T)[sp].d(T)[sp].d(A)[sp].[moe]([m5C])p.[moe]([m5C])p.[moe](T)p.[moe]([m5C])[sp].[moe](T)}$$$$ (last 3' nucleoside missing)” showed a 3 h FOB score of 3 score 0-7.

With “RNA1{[moe](T)[sp].[moe](T)p.[moe](T)p.[moe](G)p.[moe](A)p.d(G)[sp].d(A)[sp].d(T)[sp].d(A)[sp].d(T)[sp].d([m5C])[sp].d(T)[sp].d(T)[sp].d(G)[sp].d(T)[sp].[moe](G)p.[moe](A)p.[moe]([m5C])[sp].[moe]([m5C])}$$$$ (last 3' nucleoside missing)”, the 3 h FOB score came to 3 score 0-7.

“RNA1{[moe](G)[sp].[moe]([m5C])p.[moe]([m5C])p.[moe](A)p.[moe](T)[sp].d(T)[sp].d(T)[sp].d(A)[sp].d(T)[sp].d([m5C])[sp].d(T)[sp].d(G)[sp].d(T)[sp].[moe](G)p.[moe]([m5C])p.[moe](T)[sp].[moe](T)}$$$$ (last 3' nucleoside missing)” returned a 3 h FOB score of 1 score 0-7.

With “RNA1{[moe](G)[sp].[moe](T)p.[moe](A)p.[moe](T)p.[moe](T)[sp].d(A)[sp].d(G)[sp].d(G)[sp].d(A)[sp].d(T)[sp].d([m5C])[sp].d([m5C])[sp].d([m5C])[sp].[moe](A)p.[moe](T)p.[moe]([m5C])[sp].[moe](T)}$$$$ (last 3' nucleoside missing)”, the 3 h FOB score turned out to be 2 score 0-7.
